According to patent US20060069132A1, “Azolecarboxamide herbicides” (priority 2004, published 2006):

Columns and labels:
[1] = test system: wild oat; assay: Test B postemergence herbicide test; format: in vivo, Avena fatua
Outline: (§1)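 Greenhouse test; postemergence application to plants at 1–4 leaves (2–18 cm); paddy species at 2 leaves; evaluated visually vs controls at 13–15 days; scale 0–100 (100 = complete control).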

[2] = test system: barnyardgrass; assay: Test C flooded paddy test; format: in vivo, Echinochloa crus-galli
Outline: (§2)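 Plants were grown to the 1- to 4-leaf stage (2–18 cm) and then treated postemergence, or grown to the 2-leaf stage for the flooded paddy test. They were held in a greenhouse for 12 to 14 days and then scored by eye against controls, where 0 is no effect and 100 is complete control.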

[3] = test system: pigweed; assay: Test B pre-/postemergence herbicide test; format: in vivo, Amaranthus retroflexus
Outline: (§3)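 Greenhouse pot assay with simultaneous preemergence (treated seed) and postemergence (2–18 cm seedlings) applications of surfactant-containing, non-phytotoxic solvent formulations. Response scored visually 13–15 days later on a 0–100 scale, 100 meaning complete control.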

[4] = test system: corn; assay: Test B pre-/postemergence herbicide test; format: in vivo, Zea mays
Outline: as §3

[5] = test system: smallflower umbrella sedge; assay: Test C flooded paddy test; format: in vivo, Cyperus difformis
[6] = test system: Surinam grass; assay: Test B pre-/postemergence herbicide test; format: in vivo, Urochloa decumbens
Outline: as §3

[7] = test system: ducksalad; assay: Test B flooded paddy test; format: in vivo, Heteranthera limosa; settings: 1000 g ai/ha, visual rating, scale 0 to 100 (0 no effect, 100 complete control), 13 to 15 days
Outline: (§4)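 Postemergence plants were sprayed with formulated test chemicals at 2 to 18 cm height (1- to 4-leaf stage); paddy species were grown to the 2-leaf stage. After 13 to 15 days in a greenhouse, injury was rated visually against untreated controls on a 0–100 scale (0 = no effect, 100 = complete control).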

[8] = test system: morningglory; assay: Test B pre-/postemergence herbicide test; format: in vivo, Ipomoea coccinea
Outline: (§5)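 Seeds were planted and treated preemergence with compounds formulated in a non-phytotoxic solvent mixture containing surfactant, while plants at the 1- to 4-leaf stage (2 to 18 cm) received postemergence sprays. Flooded paddy plants were grown to the 2-leaf stage. After 13 to 15 days in a greenhouse, injury was visually rated 0–100 against untreated controls.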

[9] = test system: rice; assay: Test C flooded paddy test; format: in vivo, Oryza sativa
Outline: as §2

[10] = test system: lambsquarters; assay: Test B pre-/postemergence herbicide test; format: in vivo, Chenopodium album
Outline: as §3

[11] = test system: blackgrass; assay: Test B postemergence herbicide test; format: in vivo, Alopecurus myosuroides
Outline: as §4

[12] = test system: barnyardgrass; assay: Test B pre-/postemergence herbicide test; format: in vivo, Echinochloa crus-galli
Outline: as §5

[13] = test system: cocklebur; assay: Test B pre-/postemergence herbicide test; format: in vivo, Xanthium strumarium
Outline: as §5

[14] = test system: large crabgrass; assay: Test B pre-/postemergence herbicide test; format: in vivo, Digitaria sanguinalis
Outline: as §3

[15] = test system: small flower umbrella sedge; assay: Test B flooded paddy test; format: in vivo, Cyperus difformis; settings: 1000 g ai/ha, visual rating, scale 0 to 100 (0 no effect, 100 complete control), 13 to 15 days
Outline: as §4

[16] = test system: barnyardgrass; assay: Test B flooded paddy test; format: in vivo, Echinochloa crus-galli; settings: 1000 g ai/ha, visual rating, scale 0 to 100 (0 no effect, 100 complete control), 13 to 15 days
Outline: as §4

[17] = test system: giant foxtail; assay: Test B pre-/postemergence herbicide test; format: in vivo, Setaria faberi
Outline: as §3

[18] = test system: rice; assay: Test B flooded paddy test; format: in vivo, Oryza sativa; settings: 1000 g ai/ha, visual rating, scale 0 to 100 (0 no effect, 100 complete control), 13 to 15 days
Outline: as §1

[19] = test system: velvetleaf; assay: Test B pre-/postemergence herbicide test; format: in vivo, Abutilon theophrasti
Outline: as §3

[20] = test system: ducksalad; assay: Test C flooded paddy test; format: in vivo, Heteranthera limosa
[21] = test system: wheat; assay: Test B postemergence herbicide test; format: in vivo, Triticum aestivum; parameters: key to Wheat plant response rating: 0 = no effect, 100 = complete control
Outline: as §1

[22] = Postemergence, 250 g ai/ha, scale 0 (no effect) to 100 (complete control)
[23] = postemergence, 62 g ai/ha, scale 0 to 100
[24] = 62 g ai/ha, scale 0 to 100 (0 no effect, 100 complete control)
[25] = 250 g ai/ha, scale of 0 to 100, 0 is no effect, 100 is complete control
[26] = 500 g ai/ha, visual rating after 12 to 14 days, scale 0 to 100 (0 no effect, 100 complete control)
[27] = 125 g ai/ha, scale 0 to 100 (0 no effect, 100 complete control)

Compound: CCNC(=O)c1cccc(NC(=O)c2cn(C(C)(C)C)nc2C(F)(F)F)c1 [Compound 192]
- Oat, Wild plant response rating [1, 22]: 20
- Oat, Wild plant response rating [1, 23]: 10
- Barnyardgrass plant response rating [2, 24]: 0
- Barnyardgrass plant response rating ([2]; 125 g ai/ha, scale of 0 to 100, 0 is no effect, 100 is complete control): 0
- Barnyardgrass plant response rating [2, 25]: 0
- Plant response rating, Barnyardgrass [2, 26]: 70
- Pigweed plant response rating [3, 22]: 60
- Pigweed plant response rating [3, 23]: 30
- Corn plant response rating [4, 22]: 10
- Corn plant response rating [4, 23]: 10
- Sedge, Umbrella plant response rating [5, 24]: 70
- Sedge, Umbrella plant response rating [5, 27]: 75
- Sedge, Umbrella plant response rating [5, 25]: 85
- Plant response rating, Sedge, Umbrella [5, 26]: 90
- Surinam Grass plant response rating [6, 22]: 10
- Surinam Grass plant response rating [6, 23]: 10
- Ducksalad plant response rating [7]: 80
- Morningglory plant response rating [8, 22]: 100
- Morningglory plant response rating [8, 23]: 60
- Rice plant response rating [9, 24]: 0
- Rice plant response rating [9, 27]: 15
- Rice plant response rating [9, 25]: 45
- Plant response rating, Rice [9, 26]: 70
- Lambsquarters plant response rating [10, 22]: 80
- Lambsquarters plant response rating [10, 23]: 70
- Blackgrass plant response rating [11, 22]: 0
- Blackgrass plant response rating [11, 23]: 0
- Barnyardgrass plant response rating [12, 22]: 10
- Barnyardgrass plant response rating [12, 23]: 0
- Cocklebur plant response rating [13, 22]: 60
- Cocklebur plant response rating [13, 23]: 0
- Crabgrass, Large plant response rating [14, 22]: 20
- Crabgrass, Large plant response rating [14, 23]: 10
- Sedge, Umbrella plant response rating [15]: 80
- Barnyardgrass plant response rating [16]: 80
- Foxtail, Giant plant response rating [17, 22]: 20
- Foxtail, Giant plant response rating [17, 23]: 10
- Rice plant response rating [18]: 70
- Velvetleaf plant response rating [19, 22]: 50
- Velvetleaf plant response rating [19, 23]: 20
- Ducksalad plant response rating [20, 24]: 0
- Ducksalad plant response rating [20, 27]: 0
- Ducksalad plant response rating [20, 25]: 25
- Plant response rating, Ducksalad [20, 26]: 60
- Wheat plant response rating ([21]; 250 g ai/ha, scale 0 to 100, 0 no effect, 100 complete control, preemergence): 10
- Wheat plant response rating [21, 22]: 0
- Wheat plant response rating [21, 23]: 0
